According to US8048918B2, “Treatment of hyperproliferative diseases” (Vampex Limited, priority 2000, dated 2011):
“Also recorded” adds a separate entry of the source. Where no end group is shown, it is not given here.

Key:
[1] = tested on: hyperproliferative psoriatic keratinocytes; test: proliferation assay (Coulter cell counter) on hyperproliferative psoriatic keratinocytes; format: cell-based, human
Source text: Biopsy samples are obtained from psoriatic patients. Skin from patients with chronic plaque psoriasis are obtained with informed consent. Ethical approval has been obtained previously from The South Sheffield Regional Ethics Committee. Biopsies are all be taken from the lower back in psoriasis patients aged 40 to 60.
Remove subcutaneous tissue and some of the dermis with scissors, dissect skin into 1×2 cm pieces with a scalpel. Rinse the tissue 2-5 times in PBSA. Float skin samples on 0.6% Trypsin in PBSA (pH 7.4) ON at 4° C. (or alternatively for 20-30 min at 37° C.)
The separation of the epidermis is carefully monitored. When the first detachment of the epidermis is visible at the cut edges of the skin sample place the pieces (dermis-side down) in 100 mm Petri dishes. Irrigate with 5 ml of complete culture medium (incl. serum). Peel off the epidermis with forceps and collect it in a 50 ml centrifuge tube containing 20 ml of complete culture medium (KGM). Separate the keratinocytes from the epidermal cells by gently pipetting and sieving through a nylon gauze of 100 μm mesh. Wash the isolated epidermal cells twice in KGM by centrifugation at 100 g for 10 min, and count the total number of cells.
Cells are seeded at 37° C. in KGM medium at a density of 2500 cells/cm^2 in a 25 cm^2 cell culture flask. The medium is replaced every 48 hours and cells are passaged when confluent.
Cell Seeding and Analysis: Purchased secondary cultures or primary cultures (from donor skin) are seeded at 3500 cells/cm^2 in K-SFM 25 cm^2 tissue culture flasks. The medium is changed (5 ml per flask) the day after seeding and every other day thereafter. At 70-80% confluence the cells are subcultured by seeding 3500 cells per well in 24 well cell culture plates, each well containing 500 μl of K-SFM. One well plate is seeded for each treatment. After allowing one day for settling the cells are switched to experimental medium (500 μl per well). Stock solutions of additions are as before. Experimental treatments are as follows:
The medium is replaced every other day. Cells are harvested by trypsinisation. 500 μl Trypsin/EDTA is added to each well to be harvested and then aspirated off. The well plates are incubated for 5-6 min at 37° C. 500 μl PBS is added to the wells and the cells are resuspended. The cell suspension is added to 20 ml Isoton solution in a Coulter counter “Accuvette” and the cells are counted. On each harvest, 3 wells of cells are counted for each treatment and 3 counts were made for each well.
Cell number is calculated as follows: Coulter Counter removes 500 μl of 20 ml sample ( 1/40). Multiply cell count by 40 to obtain cell number in cup, this equals the total number of cells in one well (approximately, as ˜10% taken out for viability test). […]

[2] = tested on: hyperproliferative psoriatic keratinocytes; test: differentiation assay (K1/K10 mRNA, Northern blot / RT-PCR) on hyperproliferative psoriatic keratinocytes; format: cell-based, human
Protocol: RNA extraction is carried out according to the manufacturers instructions using the RNeasy kit (QIAGEN). 20 μg of RNA for each treatment was separated on a 1.2% agarose (1.8% formaldehyde) gel and transferred onto a nylon membrane (Zeta probe GT membranes, BioRad) by capillary transfer. The RNA is fixed to the membrane by UV crosslinking. DNA probes for the differentiation markers K1 and K10(50 ng) are labelled with [α-^32P] dCTP using the Prime-It RmT Primer labeling kit (Stratagene) following the manufacturer's instructions. Unincorporated nucleotides are removed by elution through a Microspin G25 column (Pharmacia Biotech). The blots are wetted in 0.25M sodium phosphate (pH 7.2)/7% SDS for 30 minutes at 65° C. Fresh hybridisation solution is added along with the radiolabelled probe and the blot is hybridised overnight at 65° C.
The blot is washed for 2×5 minutes in 0.25M sodium phosphate (pH 7.2), 7% SDS and then for 2×5 minutes in 20 mM sodium phosphate (pH 7.2), 5% SDS at 65° C. The wash steps are repeated until a clear distinction can be made between the signal and non-specific background. The blot is exposed to x-ray film for 24 hours before developing.
Synthesis of mRNA for the K1 and K10 keratin (markers for commitment to terminal differentiation) is examined by quantitative reverse transcription PCR (RT-PCR). Synthesis of mRNA for Cyclin D (a marker for cell proliferation) is also assayed by RT-PCR. Standard protocol for RT-PCR is followed as recommended by the manufacturer of the PCR machine (PE 2400) using 1 μg RNA from each keratinocyte culture. Suitable primers for RT-PCR are designed based on the human sequences of K1 and K10 deposited in GenBank. Northern blots are also performed: cells are harvested, RNA extracted and 20 μg RNA loaded into each well of a formaldehyde/agarose gel. The RNA is blotted onto a nylon membrane by capillary transfer and expression of K1 mRNA is determined by Northern hybridisation with a radiolabelled DNA probe.
Next, hyperproliferative epidermal keratinocytes are obtained, isolated and cultured as described above in Example 3. Hyperproliferative psoriatic keratinocytes are cultured as described above in serum-free medium with or without the addition of […] human retinol binding protein. At confluence the cells are treated (see Table 3 below) for 96 hours with peptides to 6 μM (medium replaced after 48 hours). Treatments shown in the Table 3 are for duplicate T-25 flasks (2×7 ml for each treatment).
The final concentrations are: Ca^2+ 1.2 mM, RBP 0.6 μM, peptides 6 μM.
Expression of K1 and K10 markers is determined as described above in Example 4. […]
Synthesis of mRNA for markers of proliferation and differentiation is also examined by semi-quantitative reverse transcription PCR (RT-PCR). […]

[3] = tested on: human dermal fibroblast cells; test: proliferation assay of human dermal fibroblast cells; format: cell-based; conditions: P142 1 mg/ml, peptides 6 μM; 24 hours and 4 days after treatment; FIG. 9
Protocol: Fibroblast cell culture is performed essentially as described for culture of hyperproliferative psoriatic keratinocytes (Example 3), except that following irrigation with complete culture medium, the dermal portion is incubated with 1 mg/ml of collagenase (Sigma) in 20 ml DMEM in a 50 ml centrifuge tube for 16 hours at 37° C. Then 20 ml DMEM containing 5% foetal calf serum and 1% antibiotic/antimycotic solution (Gibco) is added and the cells seeded at 37° C. in DMEM medium+additions at a density of 2500 cells/cm^2 in a 25 cm^2 cell culture flask. Medium is replaced every 48 hours and cells passaged when confluent.
Fibroblast cell culture and experiments are performed essentially as described for culture of hyperproliferative psoriatic keratinocytes (above), except that following irrigation with complete culture medium, the dermal portion is processed further. Reference is made to fibroblast culture protocols set out above.
Proliferation of cells is assayed by direct cell counting essentially as for determination of proliferation in keratinocyte cell cultures. RDH, ADH, RalDH inhibitors are found to reduce proliferation.

COS-7 cells = test: proliferation assay of COS-7 cells (Coulter counter); format: cell-based; conditions: P142 1 mg/ml, peptides 6 μM; 24 and 48 hours after treatment; FIG. 8
Protocol: (§1) […] (COS1 and COS7) are purchased from the European Cell Culture Collection, thawed and propagated according to the instructions from the supplier; cells are cultured essentially in the same manner as for normal human keratinocytes (Example 3 above), except that cells are seeded at 20 000 cells/cm^2, with only one treatment with antibody P142, control immunoglobulin, peptide 589, peptide 592 or control peptide 24 hrs after seeding.
(§2) Proliferation is assayed by counting cells in a Coulter counter, as described above.

COS-1 cells = test: proliferation assay of COS-1 cells (Coulter counter); format: cell-based; conditions: P142 1 mg/ml, peptides 6 μM; 24 and 48 hours after treatment; FIG. 7
Protocol: as §1, §2

[4] = peptides 6 μM, Ca2+ 1.2 mM, RBP 0.6 μM

Molecule: CC1=C(/C=C/C(C)=C/C=C/C(C)=C/CO)C(C)(C)CCC1 [retinol, (2E,4E,6E,8E)-3,7-dimethyl-9-(2,6,6-trimethylcyclohex-1-en-1-yl)nona-2,4,6,8-tetraen-1-ol, reference compound]
- keratinocyte proliferation on addition of retinol or retinoic acid ([1]; 1.2 mM Ca2+, 2 μM ROL, FIG. 10): induced
- effect of RBP or ROL on differentiation ([2]; under differentiation pressure from 1.2 mM calcium): inhibition of differentiation

Molecule: MKYWGVASFLQKGND [Peptide 592]
- effect on RBP-increased proliferation [1, 4]: reversed
- fibroblast proliferation (cell numbers) [3]: greater reduction in proliferation
- proliferation of Cos-7 cells (cell numbers) (COS-7 cells): marked reduction in proliferation
- proliferation of Cos-1 cells (cell numbers) (COS-1 cells): marked reduction in proliferation
- differentiation (expression of K1 and K10 markers) [2, 4]: reversed; also recorded: same effect
